According to patent US20190142748A1 (priority 2016, published 2019):

Assays:
[1] = Chlorambucil stability in aqueous solution (LCMS area percent); assay type: physicochemical; settings: chlorambucil in water (5% methanol)
[2] = oral; cited from earlier work
[3] = ten patients; cited from earlier work
[4] = molecular target: plasma proteins, specifically albumin (Homo sapiens, UniProt P02768); settings: in vitro; cited from earlier work
[5] = cited from earlier work

plasma proteins, specifically albumin, sequence (P02768 25-609): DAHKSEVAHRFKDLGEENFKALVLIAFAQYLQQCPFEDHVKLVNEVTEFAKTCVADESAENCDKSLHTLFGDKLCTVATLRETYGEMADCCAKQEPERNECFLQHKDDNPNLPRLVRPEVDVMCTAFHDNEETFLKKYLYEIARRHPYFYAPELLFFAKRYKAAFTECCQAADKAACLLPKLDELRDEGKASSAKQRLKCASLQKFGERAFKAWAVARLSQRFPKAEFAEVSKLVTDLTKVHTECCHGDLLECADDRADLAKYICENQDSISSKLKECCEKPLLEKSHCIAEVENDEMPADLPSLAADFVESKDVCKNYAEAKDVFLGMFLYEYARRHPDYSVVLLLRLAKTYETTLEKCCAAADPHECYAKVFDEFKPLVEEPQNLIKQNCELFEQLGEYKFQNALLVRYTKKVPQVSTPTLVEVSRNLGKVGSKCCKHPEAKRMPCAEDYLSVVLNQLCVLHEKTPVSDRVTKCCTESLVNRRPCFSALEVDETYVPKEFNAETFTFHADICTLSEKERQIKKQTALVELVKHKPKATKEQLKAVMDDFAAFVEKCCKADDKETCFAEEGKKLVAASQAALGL

O=C(O)CCCc1ccc(N(CCCl)CCCl)cc1 [Chlorambucil]
Chlorambucil (Area %) ([1]; t 0 h): 98.3 Area % | Chlorambucil (Area %) ([1]; t 1 h): 85.3 Area % | Chlorambucil (Area %) ([1]; t 2 h): 74.8 Area % | Chlorambucil (Area %) ([1]; t 3 h): 64.4 Area % | Chlorambucil (Area %) ([1]; t 4 h): 58.9 Area % | Chlorambucil (Area %) ([1]; t 5 h): 53.1 Area % | absorbed from the gastrointestinal tract [2]: > 70% | increase of median Tmax by food intake [3]: 2 fold | reduction of dose-adjusted AUC by food intake [3]: 20% | reduction of dose-adjusted Cmax by food intake [3]: 55% | bound to plasma proteins [4]: 99% | solubility in acetone and in alcohol ([5]; acetone, alcohol): freely soluble | solubility in water ([5]; water): practically insoluble
